Reference: ChEMBL document CHEMBL1201862, “PubChem BioAssay data set” (2004)
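Step 1: Grow cells in 96-well plates. Step 2: Expose to compound for 48 hours at 5 concentrations. Step 3: Interpolate endpoints linearly; if unreached, use highest concentration. GI50 marks 50% less growth.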 Activity calls are given as the source filed them. Rule as the data show it: active = GI50 up to about 1.1 µM and inactive = higher.

Key:
Test in all cases: NCI anticancer screen, dose series, 48 h
OVCAR-5 = test system: OVCAR-5
SK-MEL-2 = test system: SK-MEL-2
SF-268 = test system: SF-268
OVCAR-4 = test system: OVCAR-4
DMS-114 = test system: DMS-114
ACHN = test system: ACHN
NCI-H23 = test system: NCI-H23
HL-60 = test system: HL-60
SK-OV-3 = test system: SK-OV-3
NCI-H460 = test system: NCI-H460
UO-31 = test system: UO-31
HOP-92 = test system: HOP-92
HCT-116 = test system: HCT-116
TK-10 = test system: TK-10
COLO 205 = test system: COLO 205
CAKI-1 = test system: CAKI-1
UACC-257 = test system: UACC-257
Malme-3M = test system: Malme-3M
NCI-H522 = test system: NCI-H522
T47D = test system: T47D

Measured: GI50

C[C@]12CC/C(=N\OC(=O)Nc3ccccc3)C=C1CC[C@@H]1C2CC[C@@]2(C)C1CC[C@@H]2OC(=O)Nc1ccccc1 (stereo partly specified)
inactive: OVCAR-5 > 100 µM | SK-MEL-2 > 100 µM | SF-268 > 100 µM | OVCAR-4 > 100 µM | DMS-114 23.2 µM | ACHN 99.3 µM | NCI-H23 73.3 µM | HL-60 8.79 µM | SK-OV-3 > 100 µM | NCI-H460 > 100 µM | UO-31 > 100 µM | HOP-92 > 100 µM | HCT-116 > 100 µM | TK-10 > 100 µM | COLO 205 > 100 µM | CAKI-1 3.27 µM

O=C(O)c1ccccc1C(=O)c1ccco1
inactive: OVCAR-5 > 100 µM | SK-MEL-2 > 100 µM | SF-268 > 100 µM | OVCAR-4 > 100 µM | DMS-114 > 100 µM | UACC-257 > 100 µM | ACHN > 100 µM | NCI-H23 > 100 µM | HL-60 > 100 µM | NCI-H460 > 100 µM | UO-31 > 100 µM | HOP-92 > 100 µM | HCT-116 > 100 µM | TK-10 > 100 µM | Malme-3M > 100 µM | COLO 205 > 100 µM | NCI-H522 > 100 µM | CAKI-1 > 100 µM

Cc1cc(N(CCC#N)CCC#N)ccc1/C=N\c1ccc(C(=O)NN2C(=O)/C(=C/c3ccc(N(CCC#N)CCC#N)cc3)N=C2c2cc([N+](=O)[O-])ccc2Cl)cc1
inactive: OVCAR-5 > 100 µM | SK-MEL-2 > 100 µM | SF-268 > 100 µM | OVCAR-4 > 100 µM | DMS-114 > 100 µM | UACC-257 > 100 µM | ACHN 53.8 µM | NCI-H23 > 100 µM | HL-60 61.1 µM | SK-OV-3 > 100 µM | NCI-H460 > 100 µM | UO-31 > 100 µM | HOP-92 > 100 µM | HCT-116 > 100 µM | TK-10 > 100 µM | Malme-3M > 100 µM | COLO 205 > 100 µM | CAKI-1 > 100 µM

O/N=C1/C(=C/c2ccccc2)CCCC1C(NO)c1ccccc1 (stereo unspecified)
inactive: OVCAR-5 > 100 µM | SK-MEL-2 > 100 µM | SF-268 55.7 µM | OVCAR-4 31.3 µM | DMS-114 30.7 µM | UACC-257 38.5 µM | ACHN 68.4 µM | NCI-H23 59.2 µM | HL-60 2.29 µM | SK-OV-3 > 100 µM | NCI-H460 79.6 µM | UO-31 57.1 µM | HOP-92 33.3 µM | HCT-116 48.1 µM | TK-10 > 100 µM | Malme-3M 44.2 µM | COLO 205 > 100 µM | NCI-H522 45.7 µM

O=C1c2ccccc2C(=O)c2c1ccc1c3ccccc3n(Cc3ccccc3)c21
inactive: OVCAR-5 > 100 µM | SK-MEL-2 > 100 µM | SF-268 > 100 µM | OVCAR-4 53.6 µM | DMS-114 > 100 µM | ACHN 94.2 µM | HL-60 > 100 µM | SK-OV-3 > 100 µM | NCI-H460 88.9 µM | UO-31 > 100 µM | HOP-92 26.2 µM | HCT-116 > 100 µM | Malme-3M > 100 µM | COLO 205 > 100 µM | NCI-H522 > 100 µM | CAKI-1 > 100 µM

COC(=O)C1CCC(=O)N1/C(C)=N/NC(=O)Nc1ccc(Cl)c(Cl)c1 (stereo unspecified)
inactive: SK-MEL-2 > 100 µM | SF-268 69.5 µM | OVCAR-4 > 100 µM | DMS-114 > 100 µM | UACC-257 > 100 µM | ACHN 21 µM | NCI-H23 > 100 µM | HL-60 > 100 µM | SK-OV-3 43.4 µM | NCI-H460 > 100 µM | UO-31 > 100 µM | HOP-92 > 100 µM | HCT-116 > 100 µM | TK-10 88.1 µM | COLO 205 > 100 µM | CAKI-1 74.6 µM

COc1ccc(/C=C(\NC(=O)c2ccccc2)c2nc3ccccc3[nH]2)cc1
inactive: OVCAR-5 29 µM | SK-MEL-2 21.1 µM | SF-268 37 µM | OVCAR-4 17.3 µM | DMS-114 24.8 µM | UACC-257 23.8 µM | ACHN 42.6 µM | NCI-H23 19.1 µM | SK-OV-3 45.1 µM | NCI-H460 34.2 µM | UO-31 22.4 µM | HOP-92 26.9 µM | HCT-116 35.2 µM | Malme-3M 36.3 µM | COLO 205 24 µM | NCI-H522 24.7 µM | CAKI-1 36.9 µM

CC1(Sc2ccccc2)CN(Cc2ccccc2)C1=O (stereo unspecified)
inactive: SK-MEL-2 > 100 µM | SF-268 > 100 µM | OVCAR-4 88.5 µM | DMS-114 45.6 µM | UACC-257 54.5 µM | ACHN > 100 µM | NCI-H23 > 100 µM | HL-60 60.4 µM | SK-OV-3 > 100 µM | NCI-H460 > 100 µM | UO-31 22.8 µM | HOP-92 20.5 µM | HCT-116 60 µM | TK-10 > 100 µM | COLO 205 > 100 µM | NCI-H522 60.3 µM

CC1(C)CC2C(/C1=N/O)C1(C)CCCC2(C)C1O (stereo unspecified)
inactive: OVCAR-5 > 100 µM | SK-MEL-2 > 100 µM | SF-268 > 100 µM | OVCAR-4 > 100 µM | UACC-257 > 100 µM | T47D > 100 µM | ACHN > 100 µM | NCI-H23 > 100 µM | HL-60 > 100 µM | SK-OV-3 > 100 µM | NCI-H460 > 100 µM | UO-31 > 100 µM | HOP-92 > 100 µM | HCT-116 > 100 µM | TK-10 > 100 µM | Malme-3M > 100 µM | COLO 205 > 100 µM | NCI-H522 > 100 µM | CAKI-1 > 100 µM

COc1cc2c(cc1OC)-c1c(cnn1C1OC(COC(C)=O)C(OC(C)=O)C(OC(C)=O)C1OC(C)=O)CC2 (stereo unspecified)
inactive: OVCAR-5 > 100 µM | SK-MEL-2 > 100 µM | SF-268 > 100 µM | OVCAR-4 > 100 µM | DMS-114 72.6 µM | UACC-257 > 100 µM | ACHN > 100 µM | NCI-H23 > 100 µM | HL-60 11 µM | SK-OV-3 > 100 µM | NCI-H460 > 100 µM | UO-31 55.7 µM | HOP-92 48.1 µM | HCT-116 > 100 µM | TK-10 > 100 µM | COLO 205 > 100 µM | NCI-H522 18.7 µM | CAKI-1 > 100 µM

CN(C)CCCNC(=O)c1cc2/c(=C\c3ccc(N(C)C)cc3)c3ccccc3n2[n+]1C
inactive: OVCAR-5 56.6 µM | SK-MEL-2 17.6 µM | SF-268 32.6 µM | OVCAR-4 8.77 µM | UACC-257 21.4 µM | T47D 1.45 µM | ACHN > 100 µM | NCI-H23 21.3 µM | HL-60 11.9 µM | SK-OV-3 > 100 µM | NCI-H460 51.2 µM | UO-31 > 100 µM | HOP-92 22.9 µM | HCT-116 26.2 µM | TK-10 90.6 µM | Malme-3M 23.1 µM | COLO 205 8.73 µM | NCI-H522 2.64 µM | CAKI-1 > 100 µM
